Measured values published in the supplement of paper PMC10307832.

Legend:
Test in all cases: relative viability (nuclei count vs DMSO), 5 days (fraction); higher = more cells survive
[1] = compound: O=C(CCCCCCC(=O)Nc1ccccc1)NO [Vorinostat]
In short: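 Lung cancer cell lines were seeded into 1536-well plates, kept overnight at 37 °C and pinned with five library-drug doses (not always all listed) spaced by √10. After 5 days, nuclei were Hoechst-stained, imaged at 4× and counted with MetaXpress. Viability is treated-well nuclei over vehicle-well nuclei, taken as a median across plates. Plates needed control CV below 25% and at least one doubling.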

[2] = compound: O=C(CCCCCCC(=O)Nc1ccccc1)NO [Vorinostat] + CC(C)C[C@H](NC(=O)[C@H](Cc1ccccc1)NC(=O)c1cnccn1)B(O)O [Bortezomib] (partner 0.002 µM)
In short: (§1)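 Values are medians from duplicate plates. Each reflects relative viability, defined as the nuclei count of treated wells over that of vehicle wells. Lung cancer cell lines in 1536-well plates were pin-tool dosed one day after seeding with one drug alone or with a fixed anchor-drug dose plus five library-drug doses (not always all listed) in √10 steps, then fixed, stained and imaged at 4× after 5 days.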

[3] = compound: O=C(CCCCCCC(=O)Nc1ccccc1)NO [Vorinostat] + CC1(C)CCC(c2ccc(Cl)cc2)=C(CN2CCN(c3ccc(C(=O)NS(=O)(=O)c4ccc(N[C@H](CCN5CCOCC5)CSc5ccccc5)c(S(=O)(=O)C(F)(F)F)c4)cc3)CC2)C1 [Navitoclax] (partner 0.5 µM)
In short: as §1

[4] = compound: O=C(CCCCCCC(=O)Nc1ccccc1)NO [Vorinostat] + COc1cc2c(Oc3ccc(NC(=O)C4(C(=O)Nc5ccc(F)cc5)CC4)cc3F)ccnc2cc1OCCCN1CCOCC1 [Foretinib] (partner 0.25 µM)
In short: as §1

[5] = compound: O=C(CCCCCCC(=O)Nc1ccccc1)NO [Vorinostat] + CS(=O)(=O)CCNCc1ccc(-c2ccc3ncnc(Nc4ccc(OCc5cccc(F)c5)c(Cl)c4)c3c2)o1 [Lapatinib] (partner 2 µM)
In short: as §1

[6] = compound: O=C(CCCCCCC(=O)Nc1ccccc1)NO [Vorinostat] + CS(=O)(=O)N1CCN(Cc2cc3nc(-c4cccc5[nH]ncc45)nc(N4CCOCC4)c3s2)CC1 [Pictilisib] (partner 1 µM)
In short: as §1

[7] = compound: O=C(CCCCCCC(=O)Nc1ccccc1)NO [Vorinostat] + C[C@@H](Oc1cc(-c2cnn(C3CCNCC3)c2)cnc1N)c1c(Cl)ccc(F)c1Cl [Crizotinib] (partner 1 µM)
In short: as §1

[8] = compound: O=C(CCCCCCC(=O)Nc1ccccc1)NO [Vorinostat] + C[C@]1(O)C[C@@H](c2nc(-c3ccc4ccc(-c5ccccc5)nc4c3)c3c(N)nccn32)C1 [Linsitinib] (partner 1 µM)
In short: as §1

[9] = compound: O=C(CCCCCCC(=O)Nc1ccccc1)NO [Vorinostat] + Cc1nc(NC(=O)N2CCC[C@H]2C(N)=O)sc1-c1ccnc(C(C)(C)C(F)(F)F)c1 [Alpelisib] (partner 2 µM)
In short: as §1

[10] = compound: O=C(CCCCCCC(=O)Nc1ccccc1)NO [Vorinostat] + O=C(c1cc(Cc2n[nH]c(=O)c3ccccc23)ccc1F)N1CCN(C(=O)C2CC2)CC1 [Olaparib] (partner 8 µM)
In short: as §1

[11] = compound: O=C(CCCCCCC(=O)Nc1ccccc1)NO [Vorinostat] + CC(=O)Nc1cccc(-n2c(=O)n(C3CC3)c(=O)c3c(Nc4ccc(I)cc4F)n(C)c(=O)c(C)c32)c1 [Trametinib] (partner 0.02 µM)
In short: as §1

[12] = compound: O=C(CCCCCCC(=O)Nc1ccccc1)NO [Vorinostat] + CC(=O)c1c(C)c2cnc(Nc3ccc(N4CCNCC4)cn3)nc2n(C2CCCC2)c1=O [Palbociclib] (partner 0.5 µM)
In short: as §1

[13] = compound: O=C(CCCCCCC(=O)Nc1ccccc1)NO [Vorinostat] + CCNC(=O)c1noc(-c2cc(C(C)C)c(O)cc2O)c1-c1ccc(CN2CCOCC2)cc1 [Luminespib] (partner 0.01 µM)
In short: as §1

[14] = compound: O=C(CCCCCCC(=O)Nc1ccccc1)NO [Vorinostat] + COc1cccc2cc(-c3nc([C@H]4CC[C@H](C(=O)O)CC4)n4ncnc(N)c34)[nH]c12 [OSI-027] (partner 0.5 µM)
In short: as §1

[15] = compound: O=C(CCCCCCC(=O)Nc1ccccc1)NO [Vorinostat] + Cc1cc(Nc2cc(N3CCN(C)CC3)nc(Sc3ccc(NC(=O)C4CC4)cc3)n2)n[nH]1 [Tozasertib] (partner 0.1 µM)
In short: as §1

[16] = compound: O=C(CCCCCCC(=O)Nc1ccccc1)NO [Vorinostat] + Cc1nc(Nc2ncc(C(=O)Nc3c(C)cccc3Cl)s2)cc(N2CCN(CCO)CC2)n1 [Dasatinib] (partner 0.075 µM)
In short: as §1

[17] = compound: O=C(CCCCCCC(=O)Nc1ccccc1)NO [Vorinostat] + N=C(N)NC(=N)NCCc1ccccc1 [Phenformin] (partner 250 µM)
In short: as §1

[18] = compound: O=C(CCCCCCC(=O)Nc1ccccc1)NO [Vorinostat] + NC(=O)Nc1cc(-c2cccc(F)c2)sc1C(=O)N[C@H]1CCCNC1 [AZD7762] (partner 0.2 µM)
In short: as §1

[19] = compound: O=C(CCCCCCC(=O)Nc1ccccc1)NO [Vorinostat] + Nc1nc2[nH]cc(CCc3ccc(C(=O)N[C@@H](CCC(=O)O)C(=O)O)cc3)c2c(=O)[nH]1 [Pemetrexed] (partner 0.2 µM)
In short: as §1

[20] = compound: O=C(CCCCCCC(=O)Nc1ccccc1)NO [Vorinostat] + Nc1ncn([C@H]2C[C@H](O)[C@@H](CO)O2)c(=O)n1 [Decitabine] (partner 2 µM)
In short: as §1

IA-LM
relative viability ([1]; 0.253 µM): 0.976 | relative viability ([1]; 0.8 µM): 0.723 | relative viability ([1]; 1 µM, anchor plate): 0.963 | relative viability ([1]; 2.53 µM): 0.349 | relative viability ([1]; 8 µM): 0.0685 | relative viability ([2]; first compound 0.253 µM): 1.03 | relative viability ([2]; first compound 0.8 µM): 0.547 | relative viability ([2]; first compound 2.53 µM): 0.161 | relative viability ([2]; first compound 8 µM): 0.0471 | relative viability ([3]; first compound 0.253 µM): 0.791 | relative viability ([3]; first compound 0.8 µM): 0.597 | relative viability ([3]; first compound 2.53 µM): 0.235 | relative viability ([3]; first compound 8 µM): 0.0188 | relative viability ([4]; first compound 0.253 µM): 1.17 | relative viability ([4]; first compound 0.8 µM): 1.14 | relative viability ([4]; first compound 2.53 µM): 0.342 | relative viability ([4]; first compound 8 µM): 0.039 | relative viability ([5]; first compound 0.253 µM): 0.765 | relative viability ([5]; first compound 0.8 µM): 0.636 | relative viability ([5]; first compound 2.53 µM): 0.247 | relative viability ([5]; first compound 8 µM): 0.073 | relative viability ([6]; first compound 0.253 µM): 0.309 | relative viability ([6]; first compound 0.8 µM): 0.25 | relative viability ([6]; first compound 2.53 µM): 0.114 | relative viability ([6]; first compound 8 µM): 0.0475 | relative viability ([7]; first compound 0.253 µM): 0.751 | relative viability ([7]; first compound 0.8 µM): 0.743 | relative viability ([7]; first compound 2.53 µM): 0.152 | relative viability ([7]; first compound 8 µM): 0.0423 | relative viability ([8]; first compound 0.253 µM): 0.685 | relative viability ([8]; first compound 0.8 µM): 0.271 | relative viability ([8]; first compound 2.53 µM): 0.212 | relative viability ([8]; first compound 8 µM): 0.0566 | relative viability ([9]; first compound 0.253 µM): 0.769 | relative viability ([9]; first compound 0.8 µM): 0.512 | relative viability ([9]; first compound 2.53 µM): 0.224 | relative viability ([9]; first compound 8 µM): 0.0622 | relative viability ([10]; first compound 0.253 µM): 0.911 | relative viability ([10]; first compound 0.8 µM): 0.701 | relative viability ([10]; first compound 2.53 µM): 0.405 | relative viability ([10]; first compound 8 µM): 0.0749

NCI-H522
relative viability ([1]; 0.253 µM): 1.1 | relative viability ([1]; 0.8 µM): 0.869 | relative viability ([1]; 1 µM, anchor plate): 0.962 | relative viability ([1]; 2.53 µM): 0.768 | relative viability ([1]; 8 µM): 0.299 | relative viability ([11]; first compound 0.253 µM): 0.93 | relative viability ([11]; first compound 0.8 µM): 0.706 | relative viability ([11]; first compound 2.53 µM): 0.707 | relative viability ([11]; first compound 8 µM): 0.263 | relative viability ([12]; first compound 0.253 µM): 1.2 | relative viability ([12]; first compound 0.8 µM): 0.879 | relative viability ([12]; first compound 2.53 µM): 0.616 | relative viability ([12]; first compound 8 µM): 0.252 | relative viability ([13]; first compound 0.253 µM): 1.44 | relative viability ([13]; first compound 0.8 µM): 0.972 | relative viability ([13]; first compound 2.53 µM): 0.361 | relative viability ([13]; first compound 8 µM): 0.259 | relative viability ([14]; first compound 0.253 µM): 0.8 | relative viability ([14]; first compound 0.8 µM): 0.617 | relative viability ([14]; first compound 2.53 µM): 0.591 | relative viability ([14]; first compound 8 µM): 0.247 | relative viability ([15]; first compound 0.253 µM): 0.644 | relative viability ([15]; first compound 0.8 µM): 0.457 | relative viability ([15]; first compound 2.53 µM): 0.302 | relative viability ([15]; first compound 8 µM): 0.141 | relative viability ([16]; first compound 0.253 µM): 0.895 | relative viability ([16]; first compound 0.8 µM): 0.99 | relative viability ([16]; first compound 2.53 µM): 0.344 | relative viability ([16]; first compound 8 µM): 0.239 | relative viability ([17]; first compound 0.253 µM): 0.728 | relative viability ([17]; first compound 0.8 µM): 0.593 | relative viability ([17]; first compound 2.53 µM): 0.602 | relative viability ([17]; first compound 8 µM): 0.252 | relative viability ([18]; first compound 0.253 µM): 0.987 | relative viability ([18]; first compound 0.8 µM): 1.05 | relative viability ([18]; first compound 2.53 µM): 0.834 | relative viability ([18]; first compound 8 µM): 0.235 | relative viability ([19]; first compound 0.253 µM): 1.22 | relative viability ([19]; first compound 0.8 µM): 1.05 | relative viability ([19]; first compound 2.53 µM): 1.01 | relative viability ([19]; first compound 8 µM): 0.262 | relative viability ([20]; first compound 0.253 µM): 0.632 | relative viability ([20]; first compound 0.8 µM): 0.657 | relative viability ([20]; first compound 2.53 µM): 0.531 | relative viability ([20]; first compound 8 µM): 0.259 | relative viability ([10]; first compound 0.253 µM): 0.778 | relative viability ([10]; first compound 0.8 µM): 0.654 | relative viability ([10]; first compound 2.53 µM): 0.318 | relative viability ([10]; first compound 8 µM): 0.168
